Assay results as given in patent US7371763B2, “Inhibition of raf kinase using quinolyl, isoquinolyl or pyridyl ureas” (Bayer Pharmaceuticals Corporation, priority 2001, dated 2008).

A melting point of 198 to 199 °C was found for CC(C)(C)c1ccnc(NC(=O)Nc2ccc(Oc3ccc(Cl)cc3)cc2)c1 [Entry 8, N-(4-tert-Butylpyridyl)-N′-(4-(4-chlorophenoxy)phenyl) urea] in this work.
